Measured values from paper PMC6803848, “Exploring New Structural Features of the 18β-Glycyrrhetinic Acid Scaffold for the Inhibition of Anaplastic Lymphoma Kinase” (Molecules, 2019).
≈ marks a conversion by molar mass, not a printed value.

Key:
MCF-7 = assay: MTT antiproliferative assay, MCF-7 cells; type: cell-based; conditions: Homo sapiens, MCF7; MCF-7, MTT
Protocol: (§1) All the cells were seeded in 96-well plates and incubated with 5% CO2 at 37 °C for 24 h. Next, the compounds and the reference were dissolved into the culture medium. The final concentration of DMSO in the medium was less than 0.5%. After the cells were treated with compounds for 48 h, the supernatant was removed and 5 mg/mL of a fresh prepared solution of MTT was added to each well and incubated with the cells at 37 °C for another 4 h. The medium was removed, and 100 μL of testing solution was added to each well. After an overnight incubation with 5% CO2 at 37 °C, the absorbance was measured at 490/630 nm by the microplate reader. The IC50 was calculated using GraphPad Prism version 6.0 software (San Diego, CA, USA) from the non-linear curve.

A549 = assay: MTT antiproliferative assay, A549 cells; type: cell-based; conditions: Homo sapiens; for inhibition at 2 µg/mL: A549, 2 μg/mL; for inhibition at 2 µg/mL / inhibition at 20 µg/mL: 48 h, MTT, read-out: Antiproliferative activity (growth inhibition, %); for inhibition at 20 µg/mL: A549, 20 μg/mL; for IC50: A549, MTT
Protocol: as §1

HT29 = assay: MTT antiproliferative assay, HT29 cells; type: cell-based; conditions: Homo sapiens, HT-29; for inhibition at 2 µg/mL: HT29, 2 μg/mL; for inhibition at 2 µg/mL / inhibition at 20 µg/mL: 48 h, MTT, read-out: Antiproliferative activity (growth inhibition, %); for inhibition at 20 µg/mL: HT29, 20 μg/mL; for IC50: HT29, MTT
Protocol: as §1

Karpas299 = assay: MTT antiproliferative assay, Karpas299 cells; type: cell-based; conditions: Homo sapiens, KARPAS-299
Protocol: as §1

PC-3 = assay: MTT antiproliferative assay, PC-3 cells; type: cell-based; conditions: Homo sapiens; PC-3, MTT
Protocol: as §1

HepG2 = assay: MTT antiproliferative assay, HepG2 cells; type: cell-based; conditions: Homo sapiens
Protocol: as §1

Row | Compound | IC50 (MCF-7) [µg/mL] | inhibition at 2 µg/mL (A549) [%] | inhibition at 20 µg/mL (A549) [%] | IC50 (A549) [µg/mL] | inhibition at 2 µg/mL (HT29) [%] | inhibition at 20 µg/mL (HT29) [%] | IC50 (HT29) [µg/mL] | IC50 (Karpas299) [µg/mL] | IC50 (PC-3) [µg/mL] | IC50 (HepG2) [µg/mL] | melting point [°C]
1 | CC1(C)C2CC[C@]3(C)[C@H](C(=O)C=C4[C@@H]5C[C@@](C)(C(=O)O)CC[C@]5(C)CC[C@]43C)[C@@]2(C)CC[C@@H]1OC(=O)Nc1cccc(Cl)c1 (stereo partly drawn) [3e, 3β-(((3-chlorophenyl)carbamoyl)oxy)-11-oxo-olean-12-en-30-oic acid] | 8.51 (≈ 13.6 µM) | 14.3 | 74.9 | 11.3 (≈ 18.2 µM) | 18.8 | 96.4 | 10.9 (≈ 17.5 µM) | 7.31 (≈ 11.7 µM) | 9.75 (≈ 15.6 µM) | 11.9 (≈ 19.1 µM) | –
2 | CC1(C)[C@@H](O)CC[C@]2(C)[C@H]3C(=O)C=C4[C@@H]5C[C@@](C)(C(=O)O)CC[C@]5(C)CC[C@@]4(C)[C@]3(C)CC[C@@H]12 [18β-GA, 18β-glycyrrhetinic acid] | > 40 | 0 | 8.41 | > 40 | 0 | 12.9 | > 40 | > 40 | > 40 | > 40 | –
3 | C[C@@H](Oc1cc(-c2cnn(C3CCNCC3)c2)cnc1N)c1c(Cl)ccc(F)c1Cl [Crizotinib, reference compound] | 1.84 (≈ 4.09 µM) | 67.6 | 97.3 | 1.27 (≈ 2.82 µM) | 68.8 | 99.8 | 0.67 (≈ 1.49 µM) | 0.28 (≈ 0.622 µM) | 3.3 (≈ 7.33 µM) | 2.15 (≈ 4.77 µM) | –
4 | Cc1cc(C)cc(NC(=O)O[C@H]2CC[C@@]3(C)C(CC[C@]4(C)[C@@H]3C(=O)C=C3[C@@H]5C[C@@](C)(C(=O)O)CC[C@]5(C)CC[C@]34C)C2(C)C)c1 (stereo partly drawn) [3o, 3β-(((3,5-dimethylphenyl)carbamoyl)oxy)-11-oxo-olean-12-en-30-oic acid] | 7.86 (≈ 12.7 µM) | 24.4 | 86.3 | 3.24 (≈ 5.24 µM) | 55.8 | 98.2 | 7.3 (≈ 11.8 µM) | 11.4 (≈ 18.5 µM) | 10.7 (≈ 17.3 µM) | 4.75 (≈ 7.69 µM) | 279.8 to 280.6
5 | CC1(C)C2CC[C@]3(C)[C@H](C(=O)C=C4[C@@H]5C[C@@](C)(C(=O)O)CC[C@]5(C)CC[C@]43C)[C@@]2(C)CC[C@@H]1OC(=O)Nc1cc(Cl)cc(Cl)c1 (stereo partly drawn) [3c, 3β-(((3,5-dichlorophenyl)carbamoyl)oxy)-11-oxo-olean-12-en-30-oic acid] | 5.53 (≈ 8.4 µM) | 18.5 | 95.4 | 12.3 (≈ 18.6 µM) | 8.39 | 98.6 | 9.74 (≈ 14.8 µM) | 15.5 (≈ 23.5 µM) | 15 (≈ 22.7 µM) | 10.7 (≈ 16.2 µM) | 236.1 to 237.7
6 | CC1(C)C2CC[C@]3(C)[C@H](C(=O)C=C4[C@@H]5C[C@@](C)(C(=O)O)CC[C@]5(C)CC[C@]43C)[C@@]2(C)CC[C@@H]1OC(=O)Nc1ccc(Cl)c(C(F)(F)F)c1 (stereo partly drawn) [3b, 3β-(((4-chloro-3-(trifluoromethyl)phenyl)carbamoyl)oxy)-11-oxo-olean-12-en-30-oic acid] | 8.92 (≈ 12.9 µM) | 14 | 77.3 | 11.9 (≈ 17.2 µM) | 14.1 | 87.7 | 12 (≈ 17.3 µM) | 18.6 (≈ 26.8 µM) | 12.1 (≈ 17.4 µM) | 9.25 (≈ 13.4 µM) | 247.8 to 248.5
7 | Cc1ccc(NC(=O)O[C@H]2CC[C@@]3(C)C(CC[C@]4(C)[C@@H]3C(=O)C=C3[C@@H]5C[C@@](C)(C(=O)O)CC[C@]5(C)CC[C@]34C)C2(C)C)cc1Cl (stereo partly drawn) [3f, 3β-(((3-chloro-4-methylphenyl)carbamoyl)oxy)-11-oxo-olean-12-en-30-oic acid] | – | 11.4 | 80.2 | – | 15.6 | 89.2 | – | – | – | – | 270.7 to 271.6
